Test system: TFEB
Test: TFEB nuclear translocation assay, HeLa wt cells
Format: cell-based
Settings: Homo sapiens, HeLa, 2 h, 2 hrs compound treatment, Table 1 does not say HeLa wt or TRPML1 KO
Procedure, shortened: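 Cells are plated overnight, exposed to compounds for 2 hrs at 37° C, fixed with 4% PFA, blocked, and stained overnight at 4° C with rabbit anti-TFEB. After Alexa 488 secondary and Hoechst, nuclei and a perinuclear ring are segmented to give a nuclear:ring intensity ratio and AC50.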

SMILES | AC50 [µM]
CN(C)S(=O)(=O)c1ccc(S(=O)(=O)Nc2ccccc2N2CCCC3(CCCO3)C2)cc1 (centres unmarked) [Compound A-497, N1,N1-dimethyl-N4-(2-{1-oxa-7-azaspiro[4.5]decan-7-yl}phenyl)benzene-1,4-disulfonamide] | ≤ 2
CCOCCC1CCN(c2ccccc2NS(=O)(=O)c2ccc(S(=O)(=O)N(C)C)cc2)CC1 [Compound A-498, N4-{2-[4-(2-ethoxyethyl)piperidin-1-yl]phenyl}-N1,N1-dimethylbenzene-1,4-disulfonamide] | ≤ 2
CN(C)S(=O)(=O)c1ccc(S(=O)(=O)Nc2ccccc2N2CCCC23CCCOC3)cc1 (centres unmarked) [Compound A-499, N1,N1-dimethyl-N4-(2-{7-oxa-1-azaspiro[4.5]decan-1-yl}phenyl)benzene-1,4-disulfonamide] | ≤ 2
Cc1cc(C)cc(CS(=O)(=O)Nc2ccccc2N2CCN(C(=O)C(C)(C)C)CC2)c1 [Compound A-500, 1-(3,5-dimethylphenyl)-N-{2-[4-(2,2-dimethylpropanoyl)piperazin-1-yl]phenyl}methanesulfonamide] | 2.01 to 8
CC(C)(C)C(=O)N1CCN(c2ccccc2NS(=O)(=O)Cc2ccc3c(c2)COCC3)CC1 [Compound A-501, 1-(3,4-dihydro-1H-2-benzopyran-7-yl)-N-{2-[4-(2,2-dimethylpropanoyl)piperazin-1-yl]phenyl}methanesulfonamide] | 2.01 to 8
CN(C)S(=O)(=O)c1ccc(S(=O)(=O)Nc2ccccc2N2CC3CN(Cc4ccccc4)CC3C2)cc1 (centres unmarked) [Compound A-502, N4-(2-{5-benzyl-octahydropyrrolo[3,4-c]pyrrol-2-yl}phenyl)-N1,N1-dimethylbenzene-1,4-disulfonamide; formic acid] | ≤ 2
CN(C)S(=O)(=O)c1ccc(S(=O)(=O)n2nc(C3CCN(c4c(F)cccc4F)CC3)c3c2CCCN3)cc1 [Compound A-503, 4-((3-(1-(2,6-difluorophenyl)piperidin-4-yl)-4,5,6,7-tetrahydro-1H-pyrazolo[4,3-b]pyridin-1-yl)sulfonyl)-N,N-dimethylbenzenesulfonamide] | ≤ 2
CN(C)S(=O)(=O)c1ccc(S(=O)(=O)n2nc(C3CCN(c4c(F)cccc4F)CC3)c3c2CCCC3)cc1 [Compound A-504, 4-({3-[1-(2,6-difluorophenyl)piperidin-4-yl]-4,5,6,7-tetrahydro-1H-indazol-1-yl}sulfonyl)-N,N-dimethylbenzene-1-sulfonamide] | ≤ 2
CC(c1cccnc1)N1CCN(c2ccccc2NS(=O)(=O)c2ccc(S(=O)(=O)N(C)C)cc2)CC1 (centres unmarked) [Compound A-505, N1,N1-dimethyl-N4-(2-{4-[1-(pyridin-3-yl)ethyl]piperazin-1-yl}phenyl)benzene-1,4-disulfonamide] | 2.01 to 8
CN(C)S(=O)(=O)c1ccc(S(=O)(=O)Nc2ccccc2N2CCC(C(C)(F)F)CC2)cc1 [Compound A-506, N4-{2-[4-(1,1-difluoroethyl)piperidin-1-yl]phenyl}-N1,N1-dimethylbenzene-1,4-disulfonamide] | ≤ 2
CN(C)S(=O)(=O)c1ccc(S(=O)(=O)Nc2ccccc2N2CCCC3(COC3)C2)cc1 [Compound A-507, N1,N1-dimethyl-N4-(2-{2-oxa-6-azaspiro[3.5]nonan-6-yl}phenyl)benzene-1,4-disulfonamide] | 2.01 to 8
CN(C)S(=O)(=O)c1ccc(S(=O)(=O)Nc2ccccc2N2CCCC23CCOC3)cc1 (centres unmarked) [Compound A-508, N1,N1-dimethyl-N4-(2-{7-oxa-1-azaspiro[4.4]nonan-1-yl}phenyl)benzene-1,4-disulfonamide] | 2.01 to 8
CN(C)S(=O)(=O)c1ccc(S(=O)(=O)Nc2ccccc2N2CCN(CC3CCOC3)CC2)cc1 (centres unmarked) [Compound A-509, N1,N1-dimethyl-N4-(2-{4-[(oxolan-3-yl)methyl]piperazin-1-yl}phenyl)benzene-1,4-disulfonamide] | 2.01 to 8
CN(C)S(=O)(=O)c1ccc(S(=O)(=O)Nc2ccccc2N2CCN(CC3CCOCC3)CC2)cc1 [Compound A-510, N1,N1-dimethyl-N4-(2-{4-[(oxan-4-yl)methyl]piperazin-1-yl}phenyl)benzene-1,4-disulfonamide] | ≤ 2
CN(C)S(=O)(=O)c1ccc(S(=O)(=O)Nc2ccccc2N2CCCC3(CCCOC3)C2)cc1 (centres unmarked) [Compound A-511, N1,N1-dimethyl-N4-(2-{2-oxa-8-azaspiro[5.5]undecan-8-yl}phenyl)benzene-1,4-disulfonamide] | ≤ 2
CC(C)c1ccc(S(=O)(=O)Nc2ccccc2N2CCN(C(=O)C(C)(C)C)CC2)cc1 [Compound A-512, N-{2-[4-(2,2-dimethylpropanoyl)piperazin-1-yl]phenyl}-4-(propan-2-yl)benzene-1-sulfonamide] | 2.01 to 8
CCC(C)c1ccc(S(=O)(=O)Nc2ccccc2N2CCN(C(=O)C(C)(C)C)CC2)cc1 (centres unmarked) [Compound A-513, 4-(butan-2-yl)-N-{2-[4-(2,2-dimethylpropanoyl)piperazin-1-yl]phenyl}benzene-1-sulfonamide] | 2.01 to 8
CC1(C)Cc2cc(S(=O)(=O)Nc3ccccc3N3CCN(C(=O)C(C)(C)C)CC3)ccc2O1 [Compound A-514, N-{2-[4-(2,2-dimethylpropanoyl)piperazin-1-yl]phenyl}-2,2-dimethyl-2,3-dihydro-1-benzofuran-5-sulfonamide] | ≤ 2

SMILES | AC50 [µM]
Cn1ccc2cc(S(=O)(=O)Nc3ccccc3N3CCN(C(=O)C(C)(C)C)CC3)ccc21 [Compound A-515, N-{2-[4-(2,2-dimethylpropanoyl)piperazin-1-yl]phenyl}-1-methyl-1H-indole-5-sulfonamide] | 2.01 to 8
CC(C)(C)C(=O)N1CCN(c2ccccc2NS(=O)(=O)c2ccc(C(C)(C)C)cc2)CC1 [Compound A-516, 4-tert-butyl-N-{2-[4-(2,2-dimethylpropanoyl)piperazin-1-yl]phenyl}benzene-1-sulfonamide] | 2.01 to 8
CN1CC2(CCN(c3ccccc3NS(=O)(=O)c3ccc(SC(C)(C)C)cc3)CC2)c2ccc(F)cc21 [Compound A-517, 4-(tert-butylsulfanyl)-N-(2-{6-fluoro-1-methyl-1,2-dihydrospiro[indole-3,4′-piperidin]-1′-yl}phenyl)benzene-1-sulfonamide] | 2.01 to 8
COCCOCC1(C)CCN(c2ccccc2NS(=O)(=O)c2ccc(S(=O)(=O)N(C)C)cc2)CC1 [Compound A-518, N4-(2-{4-[(2-methoxyethoxy)methyl]-4-methylpiperidin-1-yl}phenyl)-N1,N1-dimethylbenzene-1,4-disulfonamide] | ≤ 2
COCCOCCOCC1(C)CCN(c2ccccc2NS(=O)(=O)c2ccc(S(=O)(=O)N(C)C)cc2)CC1 [Compound A-519, N4-[2-(4-{[2-(2-methoxyethoxy)ethoxy]methyl}-4-methylpiperidin-1-yl)phenyl]-N1,N1-dimethylbenzene-1,4-disulfonamide] | ≤ 2
Cc1ccc(N2CCOCC2)c(NS(=O)(=O)c2ccc3c(c2)CCC3)c1 [Compound A-520, N-[5-methyl-2-(morpholin-4-yl)phenyl]-2,3-dihydro-1H-indene-5-sulfonamide] | ≤ 2
COc1ccc(N2CCOCC2)c(NS(=O)(=O)c2ccc3c(c2)CCC3)c1 [Compound A-521, N-[5-methoxy-2-(morpholin-4-yl)phenyl]-2,3-dihydro-1H-indene-5-sulfonamide] | ≤ 2
CN(C)S(=O)(=O)c1ccc(S(=O)(=O)Nc2ccccc2N2CCC(C)(C(C)(C)O)CC2)cc1 [Compound A-522, N1-(2-(4-(2-hydroxypropan-2-yl)-4-methylpiperidin-1-yl)phenyl)-N4,N4-dimethylbenzene-1,4-disulfonamide] | 2.01 to 8
CCOC1(C)CCN(c2ccccc2NS(=O)(=O)c2ccc(S(=O)(=O)N(C)C)cc2)CC1 [Compound A-523, N4-[2-(4-ethoxy-4-methylpiperidin-1-yl)phenyl]-N1,N1-dimethylbenzene-1,4-disulfonamide] | ≤ 2
CN(C)S(=O)(=O)c1ccc(S(=O)(=O)Nc2ccccc2N2CCC3(CCOCC3)CC2)cc1 [Compound A-524, N1,N1-dimethyl-N4-(2-{3-oxa-9-azaspiro[5.5]undecan-9-yl}phenyl)benzene-1,4-disulfonamide] | ≤ 2
CN(C)S(=O)(=O)c1ccc(S(=O)(=O)Nc2ccccc2N2CCN(CC(C)(F)F)CC2)cc1 [Compound A-525, N4-{2-[4-(2,2-difluoropropyl)piperazin-1-yl]phenyl}-N1,N1-dimethylbenzene-1,4-disulfonamide] | ≤ 2
CC(C)CN1CCN(c2ccccc2NS(=O)(=O)c2ccc(S(=O)(=O)N(C)C)cc2)CCC1=O [Compound A-526, N1,N1-dimethyl-N4-{2-[4-(2-methylpropyl)-5-oxo-1,4-diazepan-1-yl]phenyl}benzene-1,4-disulfonamide] | 2.01 to 8
CC(C)(C)C(=O)N1CCN(c2ccccc2NS(=O)(=O)c2ccc(C(F)(F)F)cc2)CC1 [Compound A-527, N-{2-[4-(2,2-dimethylpropanoyl)piperazin-1-yl]phenyl}-4-(trifluoromethyl)benzene-1-sulfonamide] | 2.01 to 8
CC(C)(C)C(=O)N1CCN(c2ccccc2NS(=O)(=O)c2ccc(C3CC3(F)F)cc2)CC1 (centres unmarked) [Compound A-528, 4-(2,2-difluorocyclopropyl)-N-{2-[4-(2,2-dimethylpropanoyl)piperazin-1-yl]phenyl}benzene-1-sulfonamide] | 2.01 to 8
CC(C)(C)C(=O)N1CCN(c2ccccc2NS(=O)(=O)c2ccc(C(F)F)cc2)CC1 [Compound A-529, 4-(difluoromethyl)-N-{2-[4-(2,2-dimethylpropanoyl)piperazin-1-yl]phenyl}benzene-1-sulfonamide] | 2.01 to 8
CC1Cc2cc(S(=O)(=O)Nc3ccccc3N3CCN(C(=O)C(C)(C)C)CC3)ccc2O1 (centres unmarked) [Compound A-530, N-{2-[4-(2,2-dimethylpropanoyl)piperazin-1-yl]phenyl}-2-methyl-2,3-dihydro-1-benzofuran-5-sulfonamide] | 2.01 to 8
COc1ccc(S(=O)(=O)Nc2ccccc2N2CCN(C(C)C(F)(F)F)CC2)cc1 (centres unmarked) [Compound A-531, 4-methoxy-N-{2-[4-(1,1,1-trifluoropropan-2-yl)piperazin-1-yl]phenyl}benzene-1-sulfonamide] | ≤ 2

Reference: US20230104936A1, “TRPML MODULATORS” (Casma Therapeutics, Inc., priority 2019, published 2023)
